Assay results: paper PMC8635417 (Communications Biology, 2021)
Each block holds one compound with its values, some of them ahead of it.

What was measured:
[1] = molecular target: T1, M2R (Homo sapiens, UniProt P08172); assay: NanoBiT G-protein dissociation assay (Gi activation); type: cell-based; conditions: HEK293A cells expressing M2R and NanoBiT-Gi1; for Gi-protein activity relative to ACh (in words): Fig. 3a
T1 construct: expressed in transfected cells; host or cells: HEK293A
T1 sequence (P08172 1-466): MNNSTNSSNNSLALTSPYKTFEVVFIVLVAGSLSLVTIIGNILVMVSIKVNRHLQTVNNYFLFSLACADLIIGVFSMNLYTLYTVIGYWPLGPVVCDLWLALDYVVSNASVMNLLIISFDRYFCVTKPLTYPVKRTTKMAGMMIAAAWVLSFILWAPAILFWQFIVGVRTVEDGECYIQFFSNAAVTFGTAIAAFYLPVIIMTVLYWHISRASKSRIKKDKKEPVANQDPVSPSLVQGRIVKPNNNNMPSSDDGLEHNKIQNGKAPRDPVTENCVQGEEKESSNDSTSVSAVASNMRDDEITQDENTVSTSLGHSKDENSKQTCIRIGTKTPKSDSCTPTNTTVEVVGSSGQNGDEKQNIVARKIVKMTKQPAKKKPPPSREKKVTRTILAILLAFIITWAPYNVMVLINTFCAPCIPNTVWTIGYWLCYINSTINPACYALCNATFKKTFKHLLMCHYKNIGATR
Experimental: M2R-induced G-protein dissociation was measured by a NanoBiT-G-protein dissociation assay, in which the interaction between a Gα subunit and a Gβγ subunit was monitored by the NanoBiT system (Promega). Specifically, a NanoBiT-Gi1 protein consisting of Gαi1 subunit fused with a large fragment (LgBiT) at the α-helical domain and an N-terminally small fragment (SmBiT)-fused Gγ2 subunit with a C68S mutation was expressed along with untagged Gβ1 subunit and M2R. HEK293A cells were seeded in a 10-cm culture dish at a concentration of 2 × 10^5 cells mL^−1 (10 mL per well in DMEM (Nissui) supplemented with 10% fetal bovine serum (Gibco), glutamine, penicillin, and streptomycin), 1 day before transfection. Transfection solution was prepared by combining 25 µL (per dish hereafter) of polyethylenimine (PEI) Max solution (1 mg mL^−1; Polysciences), 1 mL of Opti-MEM (Thermo Fisher Scientific), and a plasmid mixture consisting of 1 µg M2R (or an empty plasmid for mock transfection), 500 ng LgBiT-containing Gαi1 subunit, 2.5 µg Gβ1 subunit, and 2.5 µg SmBiT-fused Gγ2 subunit (C68S). After an incubation for 1 day, the transfected cells were harvested with 0.5 mM EDTA-containing Dulbecco’s PBS, centrifuged and suspended in 10 mL of HBSS containing 0.01% bovine serum albumin (BSA; fatty acid–free grade; SERVA) and 5 mM HEPES (pH 7.4) (assay buffer). The cell suspension was dispensed in a white 96-well plate at a volume of 80 µL per well and loaded with 20 µL of 50 µM coelenterazine (Carbosynth) diluted in the assay buffer. After a 2 h incubation at room temperature, the plate was measured for baseline luminescence (Spectramax L, Molecular Devices) and a titrated test ligand (20 µL; […] of final concentrations) was manually added. The plate was immediately read at room temperature for the following 5 min as a kinetics mode, at measurement intervals of 20 s. The luminescence counts over 3–5 min after ligand addition were averaged and normalized to the initial count. The fold-change values were further normalized to that of vehicle-treated samples and used to plot the G-protein dissociation response. Using the Prism 8 software (GraphPad Prism), the G-protein dissociation signals were fitted to a four-parameter sigmoidal concentration-response curve.

[2] = tested on: M2R; assay: Ligand dissociation kinetics from time-course ATR-FTIR (amide-I band); type: binding, human; conditions: 1 mM ligand washed out by buffer exchange, 0.6 mL min-1, 20 °C; single exponential fit
Experimental: Each ligand (1 mM concentration) is added at 30 min time point and is washed out at 90 min time point by exchanging to the buffer without ligand at a flow rate of 0.6 mL min^−1 through a flow cell, of which the temperature is maintained at 20 °C by circulating water. […] Ligand dissociation phase is highlighted by light blue. b Time trace of the integrated absorbance signal at dissociation phase in the amide-I band for each ligand. […] Dotted lines represent the fitting curve obtained by single exponential function.
After the FTIR spectrum had been recorded in the second buffer with 1 mM ligand, the difference FTIR spectrum was calculated by subtracting the data obtained for the first and second buffer. The cycling procedure was repeated two to seven times, and the difference spectra were calculated as the average of the presence minus absence spectra of ligand. The spectral contributions of the unbound ligand, the protein/lipid shrinkage, and water/buffer components were corrected (Supplementary Figure 2–5).
All functional and statistical data were analyzed using GraphPad Prism v.9.0 (Graphpad Software) and shown as mean ± s.e.m. from at least three independent experiments. Dissociation kinetics curves were evaluated with a single exponential function.

[3] = tested on: M2R; assay: Ligand binding-induced difference ATR-FTIR spectroscopy, amide-I band; parameters: species or system human; conditions: lipid-reconstituted M2R-BRIL, 293 K; for ligand efficacy class suggested by amide-I spectral features: H2O, compared with Scop- and NMS-bound spectra; for population of active-like M2R conformation from amide-I band ratio (in words): 1 mM ligand
Experimental: Red and purple lines correspond to ACh- and Atro-bound spectra, respectively. To quantitatively examine the change in the amide-I band specific to ligand efficacy, the ratio between the band strength of (2)1656 (+)/(1)1666 (−) cm^−1 of ACh-bound spectra at high frequency and (2)1656 (+)/(3)1640 (−) cm^−1 of ACh-bound spectra at low frequency is calculated and reported as efficacy rate. b Ligand-dependent spectral changes of amide-I band originating from C=O stretch of α-helix in 1700–1620 cm^−1 region. Red, orange, and purple lines correspond to agonist-, partial agonist-, and antagonist-bound spectra, respectively. […] The error values were calculated from three replicate experiments. Cyan dotted line indicates the value = 1.
The ratio of the amide-I band was assumed to be the ligand efficacy (Fig. 2b, c). Strikingly, all agonists have an amide-I band ratio >1. The amide-I band ratio for both the partial agonists and the antagonists were <1, with the exception of Xano.
A 2 μL aliquot of the lipid-reconstituted M2R suspensions was placed on the surface of a silicon ATR crystal (three internal total reflection, Smith Detection, UK. After it was dried in a gently natural drying, the sample was rehydrated with a solvent containing 200 mM phosphate (pH 7.5) buffer with 140 mM NaCl, 3 mM MgCl2 at a flow rate of 0.6 mL min^−1 through a flow cell, of which the temperature was maintained at 20 °C by circulating water. ATR-FTIR spectra were first recorded at 2 cm^−1 resolution, using an FTIR spectrometer (Bio-rad FTS7000, Agilent, CA, USA) equipped with a liquid nitrogen-cooled MCT detector (an average of 768 interferograms). After the FTIR spectrum had been recorded in the second buffer with 1 mM ligand, the difference FTIR spectrum was calculated by subtracting the data obtained for the first and second buffer. The cycling procedure was repeated two to seven times, and the difference spectra were calculated as the average of the presence minus absence spectra of ligand. The spectral contributions of the unbound ligand, the protein/lipid shrinkage, and water/buffer components were corrected (Supplementary Figure 2–5).

[4] = tested on: M2R; conditions: 1 mM ligand, buffer exchange without ligand; cited from earlier work
[5] = tested on: M2R; parameters: method as in PMID 23441648; conditions: super agonist of M2R; cited from earlier work

Structure (SMILES): CN1[C@@H]2C[C@@H](OC(=O)[C@H](CO)c3ccccc3)C[C@H]1[C@@H]1O[C@@H]12 [Scop, Scopolamine]
Gi-protein activity relative to ACh (in words) [1]: undetectable

Structure (SMILES): C[N+](C)(C)CC#CCOC(=O)Nc1cccc(Cl)c1 [McN, McN-A-343]
dissociation kinetics (koff) from M2R (in words) [2]: fast dissociation kinetics
Gi-protein activity relative to ACh (in words) [1]: decreased Gi signalling relative to ACh

ligand efficacy class suggested by amide-I spectral features [3]: antagonist
Structure (SMILES): CCCC[N+]1(C)C2CC(OC(=O)C(CO)c3ccccc3)CC1C1OC12 (centres unmarked) [NBS, N-butylscopolamine]

Structure (SMILES): CC(C)[N+]1(C)[C@@H]2CC[C@H]1C[C@@H](OC(=O)C(CO)c1ccccc1)C2 (some centres unmarked) [Ipra, Ipratropium]
population of active-like M2R conformation from amide-I band ratio (in words) [3]: higher ratio of active conformation than Atro and Scop
Gi-dissociation activity (Emax normalized to ACh) ([1]; Span normalized to ACh): 6.3 % of ACh

Structure (SMILES): CN1[C@@H]2CC[C@H]1C[C@@H](OC(=O)C(CO)c1ccccc1)C2 (some centres unmarked) [Atro, atropine]
amide-I band intensity during dissociation phase after buffer exchange [4]: did not decrease

Structure (SMILES): C[N+](C)(C)CC#CCOC1=NOCC1 [Ixo, Iperoxo]
dissociation kinetics (koff) from M2R (in words) [2]: slowest dissociation kinetics
potency relative to ACh [5]: 100 fold
Gi-protein activity relative to ACh (in words) [1]: higher G-protein activation than ACh

Gi-protein activity relative to ACh (in words) [1]: decreased Gi signalling relative to ACh
Structure (SMILES): CCCCCCOc1nsnc1C1=CCCN(C)C1 [Xano, Xanomeline]
dissociation kinetics (koff) from M2R (in words) [2]: extremely slow
population of active-like M2R conformation from amide-I band ratio (in words) [3]: higher population of active-like M2R conformation

Structure (SMILES): CC(=O)OC(C)C[N+](C)(C)C (centres unmarked) [Meta, Metacholine]
Gi-protein activity relative to ACh (in words) [1]: almost identical Gi-protein activity as ACh

Structure (SMILES): C[N+](C)(C)CCOC(N)=O [Carb, Carbamylcholine]
Gi-protein activity relative to ACh (in words) [1]: almost identical Gi-protein activity as ACh

Structure (SMILES): CC[N+]1(C)[C@@H]2CC(OC(=O)[C@H](CO)c3ccccc3)C[C@H]1[C@@H]1O[C@@H]12 (some centres unmarked) [Oxitro, Oxitropium]
ligand efficacy class suggested by amide-I spectral features [3]: inverse agonist

Structure (SMILES): CC(=O)OCC[N+](C)(C)C [ACh, acetylcholine]
amide-I band intensity during dissociation phase after buffer exchange [4]: decreased gradually
